Reference: patent US10590085B2, “Heterocyclic amides as kinase inhibitors” (GlaxoSmithKline Intellectual Property Development Limited, priority 2015, dated 2020)

What follows are compounds tested on human monocytic leukemia U937 cells (assay: necroptosis assay in U937 cells). Details: Homo sapiens, U-937, U937 cells; viability by cellular ATP (Cell Titer-Glo); read-out: mean pIC50, inhibition of necrosis in U937 cells (converted).
Format: cell-based
Experimental: The efficacy of RIP1 inhibitors can be tested […] in vitro using a human monocytic leukemia U937 or mouse L929 fibrosarcoma cells in a necroptosis assay. As determined using the method described in He, S. et al. 2009. Cell 137(6):1100-1111 and International Patent Appln. No. PCT/IB2014/059004, now, International Patent Appln. Pub.
Viability was measured by quantitating cellular levels of ATP using the Cell Titer-Glo kit. All data are means±standard deviation of the mean.

`O=C(C1CCN(c2ncc(F)cn2)CC1)N1N=CCC1c1ccccc1` (stereo not drawn) [Example 6, (1-(5-fluoropyrimidin-2-yl)piperidin-4-yl)(5-phenyl-4,5-dihydro-1H-pyrazol-1-yl)methanone] and `CC1=NN(C(=O)C2CCN(c3ncc(F)cn3)CC2)C(c2ccccc2)C1` (stereo not drawn) [Example 87, (1-(5-fluoro-pyrimidin-2-yl)-piperidin-4-yl)(3-methyl-5-phenyl-4,5-dihydro-1H-pyrazol-1-yl)-methanone] fall in the same range of IC50: 1 to 100 nM for the first, 1 to 100 nM for the second.

`O=C(C1CCN(c2ncc(F)cn2)CC1)N1N=CCC1c1cncc(F)c1` (stereo not drawn) [Example 9] and `O=C(C1CCN(c2ncc(F)cn2)CC1)N1N=CC[C@H]1c1cncc(F)c1` [Example 10, (S)-(5-(5-fluoropyridin-3-yl)-4,5-dihydro-1H-pyrazol-1-yl)(1-(5-fluoro-pyrimidin-2-yl)piperidin-4-yl)methanone] fall in the same range of IC50: 1 to 100 nM for the first, 1 to 100 nM for the second.

`CC(C)(C)C(=O)N1N=CCC1c1cncc(F)c1` (stereo not drawn) [Example 14, 1-(5-(5-fluoro-pyridin-3-yl)-4,5-dihydro-1H-pyrazol-1-yl)-2,2-dimethyl-propan-1-one] and `CC(C)(C)C(=O)N1N=CCC1c1cccc(F)c1` (stereo not drawn) [Example 67, 1-(5-(3-fluoro-phenyl)-4,5-dihydro-1H-pyrazol-1-yl)-2,2-dimethylpropan-1-one 2,2,2-trifluoroacetate] fall in the same range of IC50: 1 to 100 nM for the first, 1 to 100 nM for the second.

`O=C(C1CCN(c2ccccc2)CC1)N1N=CCC1c1ccccc1` (stereo not drawn) [Example 18, (5-phenyl-4,5-dihydro-1H-pyrazol-1-yl)(1-phenylpiperidin-4-yl)-methanone] and `O=C(C1CCN(c2ccccc2)CC1)N1N=CC[C@H]1c1ccccc1` [Example 19, (S)-(5-phenyl-4,5-dihydro-1H-pyrazol-1-yl)(1-phenyl-piperidin-4-yl)-methanone] fall in the same range of IC50: 1 to 100 nM for the first, 1 to 100 nM for the second.

`O=C(C1CCCC1)N1N=CCC1c1ccccc1` (stereo not drawn) [Example 22, cyclopentyl(5-phenyl-4,5-dihydro-1H-pyrazol-1-yl)methanone] and `O=C(c1nccs1)N1CCC(C(=O)N2N=CCC2c2ccccc2)CC1` (stereo not drawn) [Example 112, (5-phenyl-4,5-dihydro-1H-pyrazol-1-yl)(1-(thiazole-2-carbonyl)piperidin-4-yl)methanone] fall in the same range of IC50: 1 to 100 nM for the first, 1 to 100 nM for the second.

Compared with `Cc1cccc(C(=O)N2N=CCC2c2ccccc2)c1` (stereo not drawn) [Example 23, (5-phenyl-4,5-dihydro-1H-pyrazol-1-yl)(m-tolyl) methanone], `O=C(c1ccccc1)N1N=CCC1c1ccccc1` (stereo not drawn) [Example 64, phenyl(5-phenyl-4,5-dihydro-1H-pyrazol-1-yl)-methanone 2,2,2-trifluoroacetate] is 1.6-fold lower in IC50: ~501 nM for the first, ~316 nM for the second.

Compared with `CC(C)(C)C(=O)N1N=CC[C@H]1c1cccnc1` [Example 42, (S)-2,2-dimethyl-1-(5-(pyridin-3-yl)-4,5-dihydro-1H-pyrazol-1-yl)-propan-1-one], `CC(C)(C)C(=O)N1N=CCC1c1cccc(Cl)c1` (stereo not drawn) [Example 43, 1-(5-(3-chlorophenyl)-4,5-dihydro-1H-pyrazol-1-yl)-2,2-dimethyl propan-l-one] is lower in IC50: ~251 nM for the first, 1 to 100 nM for the second.

`Cc1ccc(C2CC=NN2C(=O)C(C)(C)C)c(F)c1` (stereo not drawn) [Example 53, 1-(5-(2-fluoro-4-methylphenyl)-4,5-dihydro-1H-pyrazol-1-yl)-2,2-dimethyl-propan-1-one] and `Cc1ccc(C2CC=NN2C(=O)C(C)(C)C)cc1F` (stereo not drawn) [Example 54, 1-(5-(3-fluoro-4-methylphenyl)-4,5-dihydro-1H-pyrazol-1-yl)-2,2-dimethyl-propan-1-one] fall in the same range of IC50: 1 to 100 nM for the first, 1 to 100 nM for the second.

`Cc1ccc(C2CC=NN2C(=O)C(C)(C)C)cc1` (stereo not drawn) [Example 58, 2,2-dimethyl-1-(5-(p-tolyl)-4,5-dihydro-1H-pyrazol-1-yl)propan-1-one] and `CC(C)(C)C(=O)N1N=CCC1c1ccc(Cl)cc1` (stereo not drawn) [Example 65, 1-(5-(4-chloro-phenyl)-4,5-dihydro-1H-pyrazol-1-yl)-2,2-dimethyl-propan-1-one] fall in the same range of IC50: 1 to 100 nM for the first, 1 to 100 nM for the second.

`Cc1ccccc1C1CC=NN1C(=O)C(C)(C)C` (stereo not drawn) [Example 60, 2,2-dimethyl-1-(5-(o-tolyl)-4,5-dihydro-1H-pyrazol-1-yl)propan-1-one] and `CC(C)(C)C(=O)N1N=CCC1c1cccc(C#N)c1` (stereo not drawn) [Example 80, 3-(1-pivaloyl-4,5-dihydro-1H-pyrazol-5-yl)benzonitrile] fall in the same range of IC50: 1 to 100 nM for the first, 1 to 100 nM for the second.

`Cc1cc(F)cc(C2CC=NN2C(=O)C(C)(C)C)c1` (stereo not drawn) [Example 76, 1-(5-(3-fluoro-5-methylphenyl)-4,5-dihydro-1H-pyrazol-1-yl)-2,2-dimethyl-propan-1-one] and `CC(C)(C)C(=O)N1N=CC[C@H]1c1ccc(C#N)cc1` [Example 79, (S)-4-(1-pivaloyl-4,5-dihydro-1H-pyrazol-5-yl)-benzonitrile] fall in the same range of IC50: 1 to 100 nM for the first, 1 to 100 nM for the second.

Compared with `CC1=NN(C(=O)C(C)(C)C)C(c2ccccc2)C1` (stereo not drawn) [Example 81, 2,2-dimethyl-1-(3-methyl-5-phenyl-4,5-dihydro-1H-pyrazol-1-yl)-propan-1-one], `Cc1ccc(C(=O)N2CCC(C(=O)N3N=CCC3c3ccccc3)CC2)s1` (stereo not drawn) [Example 122, (5-methylthiophen-2-yl)(4-(5-phenyl-4,5-dihydro-1H-pyrazole-1-carbonyl)piperidin-1-yl)methanone] is lower in IC50: ~631 nM for the first, 1 to 100 nM for the second.

`O=C(c1cccc(Cl)n1)N1CCC(C(=O)N2N=CCC2c2ccccc2)CC1` (stereo not drawn) [Example 105, (1-(6-chloro-picolinoyl)piperidin-4-yl)(5-phenyl-4,5-dihydro-1H-pyrazol-1-yl)methanone] and `O=C(c1ccc(F)cn1)N1CCC(C(=O)N2N=CCC2c2ccccc2)CC1` (stereo not drawn) [Example 108, (1-(5-fluoro-picolinoyl)piperidin-4-yl)(5-phenyl-4,5-dihydro-1H-pyrazol-1-yl)methanone] fall in the same range of IC50: 1 to 100 nM for the first, 1 to 100 nM for the second.

`O=C(c1cocn1)N1CCC(C(=O)N2N=CCC2c2ccccc2)CC1` (stereo not drawn) [Example 114, oxazol-4-yl(4-(5-phenyl-4,5-dihydro-1H-pyrazole-1-carbonyl)piperidin-1-yl)methanone] and `O=C(c1ccns1)N1CCC(C(=O)N2N=CCC2c2ccccc2)CC1` (stereo not drawn) [Example 125, isothiazol-5-yl(4-(5-phenyl-4,5-dihydro-1H-pyrazole-1-carbonyl)piperidin-1-yl)methanone] fall in the same range of IC50: 1 to 100 nM for the first, 1 to 100 nM for the second.

`Cc1ncc(C(=O)N2CCC(C(=O)N3N=CCC3c3ccccc3)CC2)s1` (stereo not drawn) [Example 124, (2-methylthiazol-5-yl)(4-(5-phenyl-4,5-dihydro-1H-pyrazole-1-carbonyl)piperidin-1-yl)methanone] and `O=C(c1nc2ccccc2s1)N1CCC(C(=O)N2N=CCC2c2ccccc2)CC1` (stereo not drawn) [Example 139, beno[d]thiazol-2-yl(4-(5-phenyl-4,5-dihydro-1H-pyrazole-1-carbonyl)piperidin-1-yl)methanone] fall in the same range of IC50: 1 to 100 nM for the first, 1 to 100 nM for the second.

`O=C(c1ccc(F)cc1)N1CCC(C(=O)N2N=CCC2c2ccccc2)CC1` (stereo not drawn) [Example 130, (1-(4-fluoro-benzoyl)piperidin-4-yl)(5-phenyl-4,5-dihydro-1H-pyrazol-1-yl)methanone] and `O=C(c1ccc(F)cc1F)N1CCC(C(=O)N2N=CCC2c2ccccc2)CC1` (stereo not drawn) [Example 131, (1-(2,4-difluorobenzoyl)piperidin-4-yl)(5-phenyl-4,5-dihydro-1H-pyrazol-1-yl)-methanone] fall in the same range of IC50: 1 to 100 nM for the first, 1 to 100 nM for the second.

Compound `O=C(c1n[nH]c2ccccc12)N1CCC(C(=O)N2N=CCC2c2ccccc2)CC1` (stereo not drawn) [Example 140, (1-(1H-indazole-3-carbonyl)piperidin-4-yl)(5-phenyl-4,5-dihydro-1H-pyrazol-1-yl)methanone] has an IC50 of 1 to 100 nM.
